# Assay results: article PMC5798451 (European journal of medicinal chemistry, 2017)
# Where two headings read alike, the source gives them in different places.
# Tests used:
# [1] = tested on: HeLa cells; experiment: Flow cytometric analysis of cell cycle distribution; type: cell-based, human; settings: 24 h treatment, PI flow cytometry
# [2] = tested on: HeLa cells; experiment: Apoptosis assay annexin-V-FITC/PI, HeLa; type: cell-based, human; settings: for induction of apoptosis: 24 or 48 h, annexin-V-FITC/PI
# [3] = tested on: A549; experiment: Apoptosis assay annexin-V-FITC/PI, A549; type: cell-based, human; settings: A549, 24 or 48 h
# [4] = tested on: panel of 7 human tumor cell lines (HeLa, A549, HT-29, MDA-MB-231, RS4; 11, Jurkat, and Kasumi-1); experiment: MTT antiproliferative assay, panel of 7 human tumor cell lines; type: cell-based; settings: read-out: GI50s
# [5] = tested on: HeLa; settings: cited from earlier work
# [6] = tested on: A549; settings: cited from earlier work
# [7] = tested on: HT-29; settings: cited from earlier work
# [8] = tested on: RS4; 11; settings: cited from earlier work
# [9] = tested on: Jurkat; settings: cited from earlier work
# [10] = molecular target: bovine brain tubulin (Bos taurus, UniProt P81947+Q6B856); settings: read-out: Inhibition of tubulin assembly IC50 ± SD; tubulin at 10 µM; ref [4]; cited from earlier work
# [11] = molecular target: tubulin (Bos taurus, UniProt P81947+Q6B856); settings: tubulin 1 µM, [3H]colchicine 5 µM; ref [4]; cited from earlier work
# [12] = tested on: HeLa cells; experiment: Mitochondrial membrane potential; type: cell-based, human; settings: 0.1–1.0 µM, 6-48 h, JC-1
# [13] = tested on: HeLa cells; experiment: ROS production; type: cell-based, human; settings: 1 µM, starting at 12–24 h, H2-DCFDA
# [14] = tested on: HeLa cells; experiment: Western blot analysis of cell cycle and apoptosis proteins; type: cell-based, human
# Chain of tubulin (Q6B856 whole entry): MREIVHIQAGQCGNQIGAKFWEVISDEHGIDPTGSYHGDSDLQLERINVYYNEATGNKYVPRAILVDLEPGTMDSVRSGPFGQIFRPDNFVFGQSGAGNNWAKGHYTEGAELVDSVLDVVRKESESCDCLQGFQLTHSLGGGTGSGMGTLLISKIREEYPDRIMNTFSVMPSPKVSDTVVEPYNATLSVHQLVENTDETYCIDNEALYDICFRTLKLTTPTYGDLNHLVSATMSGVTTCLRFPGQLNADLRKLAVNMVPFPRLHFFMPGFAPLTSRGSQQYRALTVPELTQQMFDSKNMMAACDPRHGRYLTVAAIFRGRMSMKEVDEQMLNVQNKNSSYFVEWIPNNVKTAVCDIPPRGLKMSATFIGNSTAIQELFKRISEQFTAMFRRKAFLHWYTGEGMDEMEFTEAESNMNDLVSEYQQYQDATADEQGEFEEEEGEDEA
# Chain of tubulin (P81947 whole entry): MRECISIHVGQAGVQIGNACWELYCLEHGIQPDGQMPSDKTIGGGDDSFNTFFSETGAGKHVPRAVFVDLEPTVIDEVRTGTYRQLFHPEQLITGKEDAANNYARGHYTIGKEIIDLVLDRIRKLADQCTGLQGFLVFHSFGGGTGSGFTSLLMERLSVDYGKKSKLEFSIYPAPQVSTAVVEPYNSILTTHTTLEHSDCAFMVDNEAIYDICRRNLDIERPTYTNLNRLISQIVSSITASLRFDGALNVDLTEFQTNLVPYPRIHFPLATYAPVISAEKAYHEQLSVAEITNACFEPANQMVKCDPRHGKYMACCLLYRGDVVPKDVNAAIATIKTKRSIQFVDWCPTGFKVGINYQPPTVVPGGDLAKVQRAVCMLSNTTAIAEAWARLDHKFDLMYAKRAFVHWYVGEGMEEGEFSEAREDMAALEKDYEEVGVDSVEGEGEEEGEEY
# Chain of bovine brain tubulin (Q6B856 whole entry): as the sequence (Q6B856 whole entry) above
# Chain of bovine brain tubulin (P81947 whole entry): as the sequence (P81947 whole entry) above
compound,measurement,setting,value
"CCn1ccc2c3c(=O)cc(-c4cccc5ccccc45)[nH]c3ccc21 [Compound 21, 3-ethyl-7-(naphthalen-1-yl)-3H-pyrrolo[3,2-f]quinolin-9(6H)-one]",effect on cell cycle progression,[1],induced a G2/M arrest
same,induction of apoptosis,[2],induced apoptosis in a time and concentration dependent manner
same,induction of apoptosis,[3],induced apoptosis in a time and concentration dependent manner
"O=C1C=C(c2ccccc2)Nc2cccc3ccn1c23 [Compound 30, (Z)-2-phenyl-[1,4]diazepino[3,2,1-hi]indol-4(1H)-one]",IC50,[4],> 10000 nM
"CCn1ccc2c3c(=O)cc(-c4ccc5c(c4)CCCC5)[nH]c3ccc21 [Compound 23, 3-ethyl-7-(1,2,3,4-tetrahydronaphthalen-6-yl)-3H-pyrrolo[3,2-f]quinolin-9(6H)-one]",effect on cell cycle progression,[1],induced a G2/M arrest
same,induction of apoptosis,[2],induced apoptosis in a time and concentration dependent manner
same,induction of apoptosis,[3],induced apoptosis in a time and concentration dependent manner
"CCn1ccc2c3c(=O)cc(-c4ccccc4)[nH]c3ccc21 [Compound 31, 3-ethyl-7-phenyl-3H-pyrrolo[3-2-f] quinolin-9-one]",GI50,[5]; ref [4] and [8],11 ± 8 nM
same,GI50,[6]; ref [4] and [8],32 ± 1.5 nM
same,GI50,[7]; ref [4] and [8],32 ± 1.2 nM
same,GI50,[8]; ref [4] and [8],2 ± 0.3 nM
same,GI50,[9]; ref [4] and [8],0.5 ± 0.2 nM
same,IC50,[10],570 ± 20 nM
same,Inhibition of colchicine binding % Inhibition ± SD,[11],73 ± 0.7%
"COc1ccc(/C=C\c2cc(OC)c(OC)c(OC)c2)cc1O [CA-4, combretastatin A-4]",apoptotic response,[2]; 0.1 µM,strong apoptotic response
same,GI50,[5]; ref [8] and [20],4 ± 1 nM
same,GI50,[6]; ref [8] and [20],180 ± 50 nM
same,GI50,[7]; ref [8] and [20],3100 ± 100 nM
same,GI50,[8]; ref [8] and [20],0.8 ± 0.2 nM
same,GI50,[9]; ref [8] and [20],5 ± 0.6 nM
"CCn1ccc2c3c(=O)cc(-c4ccc5c(c4)OCO5)[nH]c3ccc21 [Compound 24, 7-(benzo[d][1,3]dioxol-5-yl)-3-ethyl-3H-pyrrolo[3,2-f]quinolin-9(6H)-one]",effect on cell cycle progression,[1],induced a G2/M arrest
same,induction of apoptosis,[2],induced apoptosis in a time and concentration dependent manner
same,induction of apoptosis,[3],induced apoptosis in a time and concentration dependent manner
same,mitochondrial transmembrane potential (Δψmt),[12],time-dependent increase in the percentage of cells with low Δψmt
same,ROS production,[13],induced significant production of ROS
same,expression of anti-apoptotic proteins Bcl-2 and Mcl-1,"[14]; immunoblot, 50 nM",reduced the expression
same,PARP cleavage,[14]; western blot,concentration and time-dependent cleavage of poly (ADP-Ribose) polymerase (PARP)
same,cyclin B1 expression,"[14]; western blot, 24 and 48 h",increase in cyclin B1 expression
same,phosphatase cdc25c expression,"[14]; western blot, 24 h",reduction in the expression of phosphatase cdc25c
same,phosphorylated cdc2 kinase,"[14]; western blot, in particular after 48 h",decrease of the phosphorylated form of cdc2 kinase
